Tests used:
[1] = test system: L2 mutant (U28A, A29U, G31C, G32C), vector P2-P3 (L2-L3) (RNA, riboswitch, 5-aminoallyl-U at the two dye sites (underlined positions not given)) GCGCGAGCGUUGUAUAAUCCUAAUGAAUUCCUUUGGGAGUUUCUACCAAGAGCCUUAAACUCUUGAUUACAACGCUCGCGC; test: smFRET; conditions: 10 mM Tris-HCl pH 8.0
[2] = test system: L2 mutant aptamer, SHAPE transcript (RNA, riboswitch) GCGCUUCAUAUAAUCCUAAUGAAUUCCUUUGGGAGUUUCUACCAAGAGCCUUAAACUCUUGAUUAUGAAGUAAUUUAUCGUCACGGUGCAUCUACCAUC; test: SHAPE (NMIA) probing; conditions: NaCl, 0-10 mM MgCl2; K-HEPES pH 8.0, 37 °C; 2 mM DAP
[3] = test system: L2 mutant, vector P1-P3 (RNA, riboswitch, 5-aminoallyl-U at the two dye sites (underlined positions not given)) GCGCGAGCGUUGUAUAAUCCUAAUGAAUUCCUUUGGGAGUUUCUACCAAGAGCCUUAAACUCUUGAUUACAACGCUCGCGC; test: smFRET; conditions: 10 mM NaCl, 10 mM MgCl2; 10 mM Tris-HCl pH 8.0; 1 mM DAP
[4] = test system: L3 mutant, vector P2-P3 (L2-L3) (RNA, riboswitch, 5-aminoallyl-U at the two dye sites (underlined positions not given)) GCGCGAGCGUUGUAUAAUCCUAAUGAUAUGGUUUGGGAGUUUCUACCAAGAGGGUAUAACUCUUGAUUACAACGCUCGCGC; test: smFRET; conditions: Na+, Mg2+ (see Figure S3); 10 mM Tris-HCl pH 8.0
[5] = test system: wild-type add aptamer, vector J2/3-P1 (core-P1) (RNA, riboswitch, 5-aminoallyl-U at residue 42 (aptamer numbering) and at a P1 site (position not visible)) GCGCGAGCGUUGUAUAAUCCUAAUGAUAUGGUUUGGGAGUUUCUACCAAGAGCCUUAAACUCUUGAUUACAACGCUCGCGC; test: smFRET; conditions: 10 mM NaCl, 10 mM MgCl2; 10 mM Tris-HCl pH 8.0; 1 mM DAP
[6] = test system: wild-type add aptamer, SHAPE transcript (RNA, riboswitch) GCGCUUCAUAUAAUCCUAAUGAUAUGGUUUGGGAGUUUCUACCAAGAGCCUUAAACUCUUGAUUAUGAAGUAAUUUAUCGUCACGGUGCAUCUACCAUC; test: SHAPE (NMIA) probing; conditions: NaCl, 0-10 mM MgCl2; K-HEPES pH 8.0, 37 °C; 2 mM DAP
[7] = test system: L2 mutant, vector J2/3-P1 (core-P1) (RNA, riboswitch, 5-aminoallyl-U at residue 42 (aptamer numbering) and at a P1 site (position not visible)) GCGCGAGCGUUGUAUAAUCCUAAUGAAUUCCUUUGGGAGUUUCUACCAAGAGCCUUAAACUCUUGAUUACAACGCUCGCGC; test: smFRET; conditions: 10 mM NaCl, 10 mM MgCl2; 10 mM Tris-HCl pH 8.0; 1 mM DAP
[8] = test system: wild-type add aptamer, vector P2-P3 (L2-L3) (RNA, riboswitch, 5-aminoallyl-U at the two dye sites (underlined positions not given)) GCGCGAGCGUUGUAUAAUCCUAAUGAUAUGGUUUGGGAGUUUCUACCAAGAGCCUUAAACUCUUGAUUACAACGCUCGCGC; test: smFRET
[9] = test system: L2 mutant, vector P1-P2 (RNA, riboswitch, 5-aminoallyl-U at the two dye sites (underlined positions not given)) GCGCGAGCGUUGUAUAAUCCUAAUGAAUUCCUUUGGGAGUUUCUACCAAGAGCCUUAAACUCUUGAUUACAAUGCUCGCGC; test: smFRET; conditions: 10 mM NaCl, 10 mM MgCl2; 10 mM Tris-HCl pH 8.0; 1 mM DAP
[10] = test system: wild-type add aptamer, vector P1-P2 (RNA, riboswitch, 5-aminoallyl-U at the two dye sites (underlined positions not given)) GCGCGAGCGUUGUAUAAUCCUAAUGAUAUGGUUUGGGAGUUUCUACCAAGAGCCUUAAACUCUUGAUUACAAUGCUCGCGC; test: smFRET; conditions: 10 mM NaCl, 10 mM MgCl2; 10 mM Tris-HCl pH 8.0; 1 mM DAP

Row | binding ([1]; 10 mM Na+, no Mg2+, aptamer stays in U state without Mg2+) | binding ([1]; 10 mM NaCl, 10 mM MgCl2, 1 mM DAP) | binding [2] | binding [3] | binding [4] | binding [5] | binding [6] | binding [7] | binding ([8]; 10 mM NaCl, 10 mM MgCl2, 10 mM Tris-HCl pH 8.0, 1 mM DAP, FRET same as Mg2+ alone) | binding [9] | binding [10] | binding ([1]; Na+, Mg2+ (see Figure S2), adenine concentration varied) | binding ([8]; 200 mM NaCl, 3 M urea, adenine titration) | Compound
1 | no | yes | yes | yes | yes | yes | yes | yes | yes | yes | yes |  |  | Nc1nc(N)c2[nH]cnc2n1
2 |  |  |  |  |  |  |  |  |  |  |  | yes | yes | Nc1ncnc2[nH]cnc12

— paper PMC8191784 (2021)
